US8148391B2 (Cephalon, Inc., priority 2006, dated 2012)
Where two headings read alike, the source gives them in different places. Blank lines part the entries; values can stand above or below the molecule they belong to.

Assays:
[1] = biological target: T1, baculovirus-expressed ALK (Homo sapiens, UniProt Q9UM73); assay: ALK Kinase Assay (ELISA-type, time-resolved fluorescence); type: biochemical
T1 construct: host or cells: baculovirus expression system
Procedure, shortened: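 Plates coated with phospholipase C-γ substrate (10 μg/mL in TBS); reaction started with 30 ng/ml ALK and run 15 min at 37° C. Phosphorylated substrate detected with Eu-N1-labeled PT66 antibody. IC50 from sigmoidal variable-slope fit of percent inhibition vs log concentration.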

[2] = biological target: T2, c-Met (cytoplasmic domain) (Homo sapiens, UniProt P08581); assay: c-Met Kinase Assay (same methods as for ALK, with modifications); type: biochemical
T2 construct: 10 ng/mL c-Met (cytoplasmic domain, Invitrogen Corporation #PV3143); purchased Invitrogen Corporation PV3143
Procedure, shortened: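 Europium-labeled PT66 antibody (Eu-N1) detects substrate phosphorylation on wells coated with phospholipase C-γ at 10 μg/mL. The kinase, the cytoplasmic domain of c-Met at 10 ng/mL, starts the reaction, which proceeds 15 minutes at 37° C.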

[3] = ALK kinase inhibition, 1 μM ATP, read-out: ALK Activity
[4] = c-Met kinase inhibition, 1 μM ATP, read-out: cMet Activity
[5] = 1 μM ATP (Km level), 30 ng/ml ALK, 37° C., 15 minutes, read-out: ALK Activity (ALK kinase inhibition, IC50 class)
[6] = 1 μM ATP (Km level), 10 ng/mL c-Met, read-out: cMet Activity (c-Met kinase inhibition, IC50 class)
[7] = ALK kinase inhibition, 1 μM ATP (Km level), read-out: ALK Activity
[8] = c-Met kinase inhibition, 1 μM ATP (Km level), read-out: cMet Activity
[9] = 1 μM ATP (Km level), read-out: ALK Activity (ALK Kinase Inhibition, IC50)
[10] = 1 μM ATP (Km level), read-out: cMet Activity (c-Met Kinase Inhibition, IC50)

T2 sequence (P08581 956-1390 limits assumed): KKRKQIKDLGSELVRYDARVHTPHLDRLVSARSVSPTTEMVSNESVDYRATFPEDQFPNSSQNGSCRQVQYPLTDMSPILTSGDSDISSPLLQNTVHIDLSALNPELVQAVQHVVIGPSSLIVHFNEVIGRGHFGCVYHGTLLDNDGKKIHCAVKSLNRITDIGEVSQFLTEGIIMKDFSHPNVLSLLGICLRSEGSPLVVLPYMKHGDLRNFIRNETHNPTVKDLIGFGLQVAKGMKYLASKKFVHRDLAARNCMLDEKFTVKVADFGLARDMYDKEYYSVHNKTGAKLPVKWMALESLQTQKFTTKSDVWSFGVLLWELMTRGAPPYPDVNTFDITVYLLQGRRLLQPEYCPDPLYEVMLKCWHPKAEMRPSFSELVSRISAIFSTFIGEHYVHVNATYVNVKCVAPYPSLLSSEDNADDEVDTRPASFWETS
T1 sequence (Q9UM73 19-1620): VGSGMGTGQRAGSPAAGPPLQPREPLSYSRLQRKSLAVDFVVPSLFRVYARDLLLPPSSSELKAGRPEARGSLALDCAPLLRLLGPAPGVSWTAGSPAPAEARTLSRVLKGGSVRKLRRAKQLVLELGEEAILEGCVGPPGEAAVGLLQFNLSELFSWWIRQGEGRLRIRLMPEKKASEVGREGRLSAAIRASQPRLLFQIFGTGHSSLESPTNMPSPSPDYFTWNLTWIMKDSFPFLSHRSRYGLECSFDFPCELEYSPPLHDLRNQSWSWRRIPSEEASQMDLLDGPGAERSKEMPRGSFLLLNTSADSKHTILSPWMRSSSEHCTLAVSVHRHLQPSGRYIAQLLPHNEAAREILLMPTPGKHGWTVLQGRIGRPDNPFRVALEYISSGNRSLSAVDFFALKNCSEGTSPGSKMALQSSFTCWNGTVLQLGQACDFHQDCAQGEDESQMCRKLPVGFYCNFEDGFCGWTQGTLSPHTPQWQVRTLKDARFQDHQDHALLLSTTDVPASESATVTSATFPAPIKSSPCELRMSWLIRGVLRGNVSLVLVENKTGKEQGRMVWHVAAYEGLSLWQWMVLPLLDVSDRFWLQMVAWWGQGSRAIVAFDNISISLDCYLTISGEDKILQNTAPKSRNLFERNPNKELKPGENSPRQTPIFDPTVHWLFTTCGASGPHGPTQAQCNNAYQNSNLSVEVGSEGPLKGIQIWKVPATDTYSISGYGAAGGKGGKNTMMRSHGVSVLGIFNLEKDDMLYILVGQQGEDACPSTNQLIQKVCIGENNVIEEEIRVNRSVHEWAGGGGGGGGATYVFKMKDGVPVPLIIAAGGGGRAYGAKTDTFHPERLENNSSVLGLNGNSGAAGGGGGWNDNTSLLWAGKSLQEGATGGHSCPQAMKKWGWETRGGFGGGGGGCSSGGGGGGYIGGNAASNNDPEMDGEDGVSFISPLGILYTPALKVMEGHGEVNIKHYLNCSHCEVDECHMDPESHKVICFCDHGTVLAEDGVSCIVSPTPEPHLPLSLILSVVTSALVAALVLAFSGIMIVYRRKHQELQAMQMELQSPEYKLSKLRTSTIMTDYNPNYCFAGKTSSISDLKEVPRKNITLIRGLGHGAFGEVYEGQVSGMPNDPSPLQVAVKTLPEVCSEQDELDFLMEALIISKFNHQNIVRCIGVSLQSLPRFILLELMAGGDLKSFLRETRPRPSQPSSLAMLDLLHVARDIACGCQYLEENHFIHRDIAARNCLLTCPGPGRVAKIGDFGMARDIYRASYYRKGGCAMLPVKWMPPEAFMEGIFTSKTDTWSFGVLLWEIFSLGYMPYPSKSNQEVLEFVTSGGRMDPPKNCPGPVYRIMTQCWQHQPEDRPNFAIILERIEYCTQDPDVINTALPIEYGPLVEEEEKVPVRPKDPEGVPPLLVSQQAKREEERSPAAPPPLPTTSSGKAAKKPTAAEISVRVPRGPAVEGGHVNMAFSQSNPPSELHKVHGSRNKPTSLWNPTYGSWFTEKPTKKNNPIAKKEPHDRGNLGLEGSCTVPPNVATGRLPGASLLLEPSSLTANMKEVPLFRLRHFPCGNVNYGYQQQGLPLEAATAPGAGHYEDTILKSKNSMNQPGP

IC50 [1, 3]: 1 to 10 µM | IC50 [2, 4]: 1 to 10 µM
Molecule: CNC(=O)c1ccsc1Nc1nc(Nc2ccc3c(c2)NC(=O)CCC3(C)C)ncc1Cl [Example 1486, 2-[5-Chloro-2-(5,5-dimethyl-2-oxo-2,3,4,5-tetrahydro-1H-benzo[b]azepin-8-ylamino)-pyrimidin-4-ylamino]-thiophene-3-carboxylic acid methyl amide]

IC50 [1, 3]: < 0.1 µM | IC50 [2, 4]: < 0.1 µM
Molecule: CNC(=O)c1cccc(F)c1Nc1nc(Nc2ccc3c(c2)NC(=O)C(N2CCOCC2)CC3)ncc1Cl (stereo not drawn) [Example 1491, 2-[5-Chloro-2-(3-morpholin-4-yl-2-oxo-2,3,4,5-tetrahydro-1H-benzo[b]azepin-8-ylamino)-pyrimidin-4-ylamino]-3-fluoro-N-methyl-benzamide]

IC50 [1, 5]: < 0.1 µM | IC50 [2, 6]: > 10 µM
Molecule: COCCN(C)S(=O)(=O)c1ccccc1Nc1nc(Nc2cc3c(cc2OC)CCN(CC(=O)N(C)C)CC3)ncc1Cl [Example 1184, 2-[7-(5-Chloro-4-{2-[(2-methoxy-ethyl)-methyl-sulfamoyl]-phenylamino}-pyrimidin-2-ylamino)-8-methoxy-1,2,4,5-tetrahydro-benzo[d]azepin-3-yl]-N,N-dimethyl-acetamide]

IC50 [1, 7]: < 0.1 µM | IC50 [2, 8]: > 10 µM
Molecule: CCN1CCc2ccc(Nc3ncc(Cl)c(Nc4ccccc4NS(C)(=O)=O)n3)c(OC)c2CC1 [Example 233, N-{2-[5-Chloro-2-(3-ethyl-6-methoxy-2,3,4,5-tetrahydro-1H-benzo[d]azepin-7-ylamino)-pyrimidin-4-ylamino]-phenyl}-methanesulfonamide]

Molecule: CNC(=O)c1cccc(F)c1Nc1nc(Nc2ccc3c(c2)C2CCC(C3)N2CCOC)ncc1Cl (stereo not drawn) [Example 456, 2-{5-Chloro-2-[12-(2-methoxy-ethyl)-12-aza-tricyclo[7.2.1.0(2,7)]dodeca-2(7),3,5-trien-4-ylamino]-pyrimidin-4-ylamino}-3-fluoro-N-methyl-benzamide]
IC50 [1, 7]: < 0.1 µM | IC50 [2, 8]: < 0.1 µM

IC50 [1, 7]: < 0.1 µM | IC50 [2, 8]: 1 to 10 µM
Molecule: 2-[5-Chloro-2-(6-methoxy-2-oxo-2,3,4,5-tetrahydro-1H-benzo[b]azepin-7-ylamino)-pyrimidin-4-ylamino]-N-methyl-benzamide [Example 3]

IC50 [1, 3]: < 0.1 µM | IC50 [2, 4]: 0.1 to 1 µM
Molecule: CNC(=O)c1cccc(F)c1Nc1nc(Nc2ccc3c(c2)N(C(C)C)C(=O)CCC3)ncc1Cl [Example 1474, 2-[5-Chloro-2-(1-isopropyl-2-oxo-2,3,4,5-tetrahydro-1H-benzo[b]azepin-8-ylamino)-pyrimidin-4-ylamino]-3-fluoro-N-methyl-benzamide]

IC50 [1, 5]: 0.1 to 1 µM | IC50 [2, 6]: 1 to 10 µM
Molecule: CCN1C(=O)CCC(C)(C)c2ccc(Nc3ncc(Cl)c(Nc4c(F)cccc4S(C)(=O)=O)n3)cc21 [Example 1259, 8-[5-Chloro-4-(2-fluoro-6-methanesulfonyl-phenylamino)-pyrimidin-2-ylamino]-1-ethyl-5,5-dimethyl-1,3,4,5-tetrahydro-1-benzazepin-2-one]

IC50 [1, 3]: 0.1 to 1 µM | IC50 [2, 4]: 0.1 to 1 µM
Molecule: CNC(=O)c1c(C)cccc1Nc1nc(Nc2ccc3c(c2)CCOC(=O)N3C)ncc1Cl [Example 1755, 2-[5-Chloro-2-(5-methyl-6-oxo-5,6,8,9-tetrahydro-7-oxa-5-aza-benzocyclohepten-2-ylamino)-pyrimidin-4-ylamino]-6,N-dimethyl-benzamide]

IC50 [1, 9]: < 0.1 µM | IC50 [2, 10]: > 10 µM
Molecule: COc1cc2c(cc1Nc1ncc(Cl)c(Nc3ccccc3-c3ncccc3C)n1)CCN(CC(=O)N(C)C)CC2 [Example 1000, 2-(7-{5-Chloro-4-[2-(3-methyl-pyridin-2-yl)-phenylamino]-pyrimidin-2-ylamino}-8-methoxy-1,2,4,5-tetrahydro-benzo[d]azepin-3-yl)-N,N-dimethyl-acetamide]

IC50 [1, 9]: 0.1 to 1 µM | IC50 [2, 10]: 0.1 to 1 µM
Molecule: CC(C)N1CCNC(=O)c2ccc(Nc3ncc(Cl)c(N[C@@H]4CCCC[C@H]4NS(C)(=O)=O)n3)cc21 [Example 499, N-{(1R,2R)-2-[5-Chloro-2-(1-isopropyl-5-oxo-2,3,4,5-tetrahydro-1H-benzo[e][1,4]diazepin-8-ylamino)-pyrimidin-4-ylamino]-cyclohexyl}-methanesulfonamide]

IC50 [1, 3]: > 10 µM | IC50 [2, 4]: 1 to 10 µM
Molecule: CNC(=O)c1ccccc1N(C)c1nc(Nc2ccc3c(c2)CCOC(=O)N3C)ncc1F [Example 1765, 2-{[5-Fluoro-2-(5-methyl-6-oxo-5,6,8,9-tetrahydro-7-oxa-5-aza-benzocyclohepten-2-ylamino)-pyrimidin-4-yl]-methyl-amino}-N-methyl-benzamide]

IC50 [1, 9]: < 0.1 µM | IC50 [2, 10]: < 0.1 µM
Molecule: CNC(=O)c1ccccc1Nc1nc(Nc2ccc3c(c2)OCCN(C)C3=O)ncc1Cl [Example 514, 2-[5-chloro-2-(4-methyl-5-oxo-2,3,4,5-tetrahydro-benzo[f][1,4]oxazepin-8-ylamino)-pyrimidin-4-ylamino]-N-methyl-benzamide]

IC50 [1, 9]: < 0.1 µM | IC50 [2, 10]: > 10 µM
Molecule: COc1c(Nc2ncc(Cl)c(Nc3ccccc3S(=O)(=O)C(C)C)n2)ccc2c1CCCC(N1CCOCC1)C2 (stereo not drawn) [Example 947, 5-Chloro-N(2)-(1-methoxy-6-morpholin-4-yl-6,7,8,9-tetrahydro-5H-benzocyclohepten-2-yl)-N(4)-[2-(propane-2-sulfonyl)-phenyl]-pyrimidine-2,4-diamine]

IC50 [1, 5]: < 0.1 µM | IC50 [2, 6]: 1 to 10 µM
Molecule: COc1cc2c(cc1Nc1ncc(Cl)c(Nc3ccccc3S(=O)(=O)N3CCC(O)C3)n1)CCC(N1CCN(C)CC1)CC2 (stereo not drawn) [Example 1098, 1-(2-{5-Chloro-2-[3-methoxy-7-(4-methyl-piperazin-1-yl)-6,7,8,9-tetrahydro-5H-benzocyclohepten-2-ylamino]-pyrimidin-4-ylamino}-benzenesulfonyl)-pyrrolidin-3-ol]

IC50 [1, 3]: < 0.1 µM | IC50 [2, 4]: > 10 µM
Molecule: COCCN1CC(=O)Nc2cc(Nc3ncc(Cl)c(N[C@@H]4CCCC[C@H]4NS(C)(=O)=O)n3)c(OC)cc2C1 [Example 1664, N-(1R,2R)-(2-{5-Chloro-2-[7-methoxy-4-(2-methoxy-ethyl)-2-oxo-2,3,4,5-tetrahydro-1H-benzo[e][1,4]diazepin-8-ylamino]-pyrimidin-4-ylamino}-cyclohexyl)-methanesulfonamide]

IC50 [1, 7]: < 0.1 µM | IC50 [2, 8]: 1 to 10 µM
Molecule: COCCN1CCc2ccc(Nc3ncc(Cl)c(Nc4ccccc4OC)n3)cc2CC1 [Example 145, 5-Chloro-N*2*-[3-(2-methoxy-ethyl)-2,3,4,5-tetrahydro-1H-benzo[d]azepin-7-yl]-N*4*-(2-methoxy-phenyl)-pyrimidine-2,4-diamine]

IC50 [1, 9]: < 0.1 µM | IC50 [2, 10]: > 10 µM
Molecule: COc1cc2c(cc1Nc1ncc(Cl)c(Nc3ccc(N4CCN(C)CC4)cc3OC)n1)CCN(CC(N)=O)CC2 [Example 807, 2-(7-{5-Chloro-4-[2-methoxy-4-(4-methyl-piperazin-1-yl)-phenylamino]-pyrimidin-2-ylamino}-8-methoxy-1,2,4,5-tetrahydro-benzo[d]azepin-3-yl)-acetamide]

IC50 [1, 7]: < 0.1 µM | IC50 [2, 8]: 1 to 10 µM
Molecule: CN(C)C(=O)N1CCN(C)c2cc(Nc3ncc(Cl)c(N[C@@H]4CCCC[C@H]4NS(C)(=O)=O)n3)ccc2C1 [Example 481, 8-[5-Chloro-4-((1R,2R)-2-methanesulfonylamino-cyclohexylamino)-pyrimidin-2-ylamino]-1-methyl-1,2,3,5-tetrahydro-benzo[e][1,4]diazepine-4-carboxylic acid dimethylamide]

IC50 [1, 3]: 0.1 to 1 µM | IC50 [2, 4]: < 0.1 µM
Molecule: CNC(=O)c1scc(C)c1Nc1nc(Nc2ccc3c(c2)C(C)(C)NC(=O)CC3)ncc1Cl [Example 1835, 3-(5-Chloro-2-(1,1-dimethyl-3-oxo-2,3,4,5-tetrahydro-1H-benzo[c]azepin-8-ylamino)pyrimidin-4-ylamino)-N,4-dimethylthiophene-2-carboxamide]

IC50 [1, 5]: < 0.1 µM | IC50 [2, 6]: 0.1 to 1 µM
Molecule: COCCN1CCc2ccc(Nc3ncc(Cl)c(Nc4ccccc4C(=O)NCC(C)C)n3)cc2CC1 [Example 1396, {5-Chloro-2-[3-(2-methoxy-ethyl)-2,3,4,5-tetrahydro-1H-benzo[d]azepin-7-ylamino]-pyrimidin-4-ylamino}-N-isobutyl-benzamide]

IC50 [1, 3]: < 0.1 µM | IC50 [2, 4]: 1 to 10 µM
Molecule: COc1cc2c(cc1Nc1ncc(Cl)c(Nc3ccccc3S(=O)(=O)N(C)C)n1)CCN(CCOP(=O)(O)O)CC2 [Example 1545, Phosphoric acid mono-(2-{7-[5-chloro-4-(2-dimethylsulfamoyl-phenylamino)-pyrimidin-2-ylamino]-8-methoxy-1,2,4,5-tetrahydro-3-benzazepin-3-yl}-ethyl)ester]

IC50 [1, 5]: 1 to 10 µM | IC50 [2, 6]: 1 to 10 µM
Molecule: COCCN1CCc2ccc(Nc3ncc(Cl)c(Nc4c(OC)cccc4C(=O)NCCC#N)n3)cc2CC1 [Example 1060, 2-{5-Chloro-2-[3-(2-methoxy-ethyl)-2,3,4,5-tetrahydro-1H-benzo[d]azepin-7-ylamino]-pyrimidin-4-ylamino}-N-(2-cyano-ethyl)-3-methoxy-benzamide]

IC50 [1, 5]: < 0.1 µM | IC50 [2, 6]: 1 to 10 µM
Molecule: COc1cc2c(cc1Nc1ncc(Cl)c(Nc3ccccc3S(=O)(=O)N(C)C)n1)CCC(NCCO)CC2 (stereo not drawn) [Example 1089, 2-{5-Chloro-2-[7-(2-hydroxy-ethylamino)-3-methoxy-6,7,8,9-tetrahydro-5H-benzocyclohepten-2-ylamino]-pyrimidin-4-ylamino}-N,N-dimethyl-benzenesulfonamide]
